Assay results from patent US20120015957A1, “PIPERAZINYL DERIVATIVES USEFUL AS MODULATORS OF THE NEUROPEPTIDE Y2 RECEPTOR” (priority 2007, published 2012).
Like-named read-outs stand apart in the source and are kept apart here.

What was measured:
NPY Y2 receptor [1] = target: T1, NPY Y2 receptor (Homo sapiens, UniProt P49146); assay: Neuropeptide Y2 pKB assay (FLIPR, KAN-Ts cells stably expressing chimeric G proteins); type: cell-based; conditions: apparent pKB, FLIPR calcium, KAN-Ts cells with chimeric G proteins; modified Cheng-Prusoff correction
T1 construct: endogenous in cells; host or cells: KAN-Ts cells (membrane preparation)
T1 sequence (P49146 1-381): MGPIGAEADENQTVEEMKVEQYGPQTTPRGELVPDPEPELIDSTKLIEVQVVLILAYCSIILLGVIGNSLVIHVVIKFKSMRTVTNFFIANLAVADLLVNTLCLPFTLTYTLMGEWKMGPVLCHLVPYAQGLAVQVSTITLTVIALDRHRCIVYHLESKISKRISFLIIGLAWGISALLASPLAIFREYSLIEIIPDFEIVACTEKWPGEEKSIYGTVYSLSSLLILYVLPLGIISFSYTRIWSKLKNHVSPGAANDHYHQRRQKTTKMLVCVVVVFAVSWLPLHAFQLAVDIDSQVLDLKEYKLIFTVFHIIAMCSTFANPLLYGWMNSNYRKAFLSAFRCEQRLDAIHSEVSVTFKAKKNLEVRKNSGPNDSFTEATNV
Procedure: The assay was performed using the fluorimetric imaging plate reader (FLIPR) format as described in Dautzenberg, F. M., Biochemical Pharmacology 2005, 69, 1493.
KAN-Ts cells stably expressing chimeric G proteins were seeded at a density of 100,000 cells into poly-d-lysine coated 384-well blackwall, clear-bottom microtiter plates (Corning, N.Y.). One day later, the medium was removed and 50 μl loading medium DMEM high glucose, without serum, supplemented with 10 mM HEPES-acid, 0.1% BSA, 5 mM probenecid and 2 μM Fluo-3AM was added. Cells were loaded for 1 h at 37° C., washed twice with 50 μl assay buffer (5 mM HEPES-acid, 140 mM NaCl, 1 mM MgCl2, 5 mM KCl, 10 mM glucose) and then 30 μl assay buffer was added. Cells were further pre-incubated at room temperature before adding agonists or agonists plus antagonists in 20 μl assay buffer and then measured on a T-channel fluorometric imaging plate reader (FLIPR, Molecular Devices, Sunnyvale, Calif.). Antagonistic potency values were converted to apparent pKB values using a modified Cheng-Prusoff correction. Apparent pKB was calculated as pKB=−log IC50/1+[conc agonist/EC50].

NPY Y2 receptor [2] = target: T1, NPY Y2 receptor; assay: Neuropeptide Y2 radioligand binding assay ([125I]PYY, KAN-Ts cell membranes)
In short: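 Membranes from KAN-Ts cells (endogenous Y2) incubated 1 h at rt with 80 pM [125I]PYY ± compound in HEPES/NaCl binding buffer, then filtered and counted. Nonspecific binding defined with […]. IC50 from sigmoidal fits; apparent K = IC50/(1+C/KD).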

[3] = membranes of KAN-Ts cells endogenously expressing Y2 receptors, [125I]PYY 80 pM, 1 h at rt, read-out: IC50 (μM), NPY Y2 binding

SMILES | Kb (NPY Y2 receptor [1]) | IC50 (NPY Y2 receptor [2]; [3]) | IC50 (NPY Y2 receptor [2])
CCN(CC)C(=O)C(c1ccccc1)N1CCN(c2ccc(-c3noc(C)n3)cc2F)CC1 (centres unmarked) [Compound 67, N,N-Diethyl-2-{4-[2-fluoro-4-(5-methyl-[1,2,4]oxadiazol-3-yl)-phenyl]-piperazin-1-yl}-2-phenyl-acetamide] | 200 nM | 0.18 µM | 
CCN(CC)C(=O)C(c1ccccc1)N1CCN(c2ccc(-c3noc(C(C)C)n3)cc2F)CC1 (centres unmarked) [Compound 69, N,N-Diethyl-2-{4-[2-fluoro-4-(5-isopropyl-[1,2,4]oxadiazol-3-yl)-phenyl]-piperazin-1-yl}-2-phenyl-acetamide] | 50.1 nM | 0.13 µM | 
CCN(CC)C(=O)C(c1ccccc1)N1CCN(c2ccc(-c3nc(C)no3)cc2F)CC1 (centres unmarked) [Compound 119, N,N-Diethyl-2-{4-[2-fluoro-4-(3-methyl-[1,2,4]oxadiazol-5-yl)-phenyl]-piperazin-1-yl}-2-phenyl-acetamide] | 89.1 nM | 0.085 µM | 
CCN(CC)C(=O)C(c1ccccc1)N1CCN(c2ccc(-c3nc(C)no3)cc2Br)CC1 (centres unmarked) [Compound 203, 2-{4-[2-Bromo-4-(3-methyl-[1,2,4]oxadiazol-5-yl)-phenyl]-piperazin-1-yl}-N,N-diethyl-2-phenyl-acetamide] | 200 nM | 0.15 µM | 
CCN(CC)C(=O)C(c1ccccc1)N1CCN(c2ccc(-c3nc(C)no3)cc2C#N)CC1 (centres unmarked) [Compound 217, 2-{4-[2-Cyano-4-(3-methyl-[1,2,4]oxadiazol-5-yl)-phenyl]-piperazin-1-yl}-N,N-diethyl-2-phenyl-acetamide] | 23.4 nM | 0.023 µM | 
CCN(CC)C(=O)C(c1ccccc1)N1CCN(c2ccc(-c3nc(C(C)C)no3)cc2C#N)CC1 (centres unmarked) [Compound 218, 2-{4-[2-Cyano-4-(3-isopropyl-[1,2,4]oxadiazol-5-yl)-phenyl]-piperazin-1-yl}-N,N-diethyl-2-phenyl-acetamide] | 12.6 nM | 0.011 µM | 
CCN(CC)C(=O)C(c1ccc(F)cc1)N1CCN(c2ccc(-c3nc(C)no3)cc2C#N)CC1 (centres unmarked) [Compound 262, 2-{4-[2-Cyano-4-(3-methyl-[1,2,4]oxadiazol-5-yl)-phenyl]-piperazin-1-yl}-N,N-diethyl-2-(4-fluoro-phenyl)-acetamide] |  | 0.098 µM | 
CCN(CC)C(=O)C(c1cccc(F)c1)N1CCN(c2ccc(-c3nc(C)no3)cc2C#N)CC1 (centres unmarked) [Compound 263, 2-{4-[2-Cyano-4-(3-methyl-[1,2,4]oxadiazol-5-yl)-phenyl]-piperazin-1-yl}-N,N-diethyl-2-(3-fluoro-phenyl)-acetamide] | 20 nM | 0.035 µM | 
CCNC(=O)C(c1ccccc1)N1CCN(c2ccc(-c3nc(C(C)C)no3)cc2C#N)CC1 (centres unmarked) [Compound 270] |  |  | 0.062 µM
CCN(CC)C(=O)C(c1ccccc1)N1CCN(c2ccc(-c3nc(C)ns3)cc2F)CC1 (centres unmarked) [Compound 271, N,N-Diethyl-2-{4-[2-fluoro-4-(3-methyl-[1,2,4]thiadiazol-5-yl)-phenyl]-piperazin-1-yl}-2-phenyl-acetamide] |  | 0.11 µM | 
